Experimental findings from patent US12465607B2, “ALK inhibitors for treatment of ALK-negative cancer and plasma cell-mediated diseases” (UNIVERSITETET I OSLO, priority 2019, dated 2025) are described below.

The subject of one data set is AMO-1. Kind of data set: Myeloma cell line viability, CCK-8, 24 hr. Type of data set: cell-based. As to conditions: Homo sapiens, AMO1; AMO-1, 24 hr treatment. How it is done:
(§1) The Results are the means of 3 independent experiments. Note the concentration-dependent reduction of viability of myeloma cells.
(§2) The cell lines used were the human multiple myeloma cell lines L363 (DSMZ catalogue number ACC 49), AMO-1 (DSMZ catalogue number ACC 538) and ARH-77 (ATCC CRL-1621).
(§3) Multiple myeloma cell lines were maintained in RPMI-1640 culture medium (Sigma-Aldrich, Buchs, Switzerland) supplemented with 10% heat-inactivated fetal bovine serum (FBS), 100 μg/ml streptomycin and 100 U/ml penicillin/streptomycin (Sigma-Aldrich, Buchs, Switzerland). The bortezomib-resistant cell lines were established and maintained from their parental cell line by continuous drug exposure>12 months to their parental cell lines (Soriano et al, Leukemia 30: 2198-2207, 2016).
(§4) The viability of the cells was determined 24 hr post treatment using Cell Counting Kit-8 (CCK-8; MedChemExpress, NJ, USA) according to the manufacturer's instructions.

Another data set concerns AMO-1-BTZ. Kind of data set: Myeloma cell line viability, CCK-8, 24 hr. Type of data set: cell-based. The following applies: Homo sapiens, 24 hr treatment. How it is done: as §1, §2, §3, §4
The next data set deals with multiple myeloma cells. As to the kind of experiment: Cytotoxic activity against multiple myeloma cells (FIG. 4, L363, AMO-1 and bortezomib-resistant clones). Type of data set: cell-based, human. As to conditions: FIG. 4, 24 hr treatment. How it is done:
as §1, §2, §3, §4

The next data set deals with L363-BTZ. As to the kind of experiment: Myeloma cell line viability, CCK-8, 24 hr. It is filed as cell-based, human. As to conditions: Homo sapiens; L363-BTZ, 24 hr treatment. How it is done:
as §1, §2, §3, §4

The subject of the next data set is L363. Kind of data set: Myeloma cell line viability, CCK-8, 24 hr. It is filed as cell-based, human. The following applies: Homo sapiens, L-363; L363, 24 hr treatment. How it is done: as §1, §2, §3, §4
The test system of data set [1] is human L363-BTZ (bortezomib-resistant) myeloma cells. Kind of data set: Intrafemoral L363-BTZ luciferase xenograft in NSG mice. It is filed as in vivo. As to conditions: 7 days treatment from day 10; crizotinib 50 mg/kg orally daily; bortezomib 1 mg/kg i.v. twice. How it is done: In this figure, immunocompromised NSG mice were intrafemorally injected with human L363-BTZ (bortezomib-resistant) myeloma cells. The cells were equipped with luciferase for in vivo monitoring of disease progression. After 10 days, mice were treated with bortezomib i.v. twice over a 7 day period and with crizotinib orally every day over the 7 day period. The images on the left show examples of tumour load in the different groups at days 4 and 7 of treatment (days 14 and 17 post tumour inoculation), and the graph on the right depicts the average luciferase signal for each mouse in each cohort (n=4) normalised to day 0 of the treatment (day 10 post tumour inoculation). Statistical significance between the groups was assessed with two-way ANOVA and between the time-points using one-way ANOVA with Tukey post-test.
NSG (NOD-scid IL2Rgamma^null) mice were obtained from The Jackson Laboratory (No. 005557, CA, USA) and kept in isolated ventilated cages with food ad libitum. Age matched (6-8 weeks old) mice were injected with 0.5×10^5 L363-BTZ_Luc+_TdTomato+ multiple myeloma cells (equipped with luciferase vector for monitoring, obtained from Addgene: #72486) into the right femur. Tumour growth was monitored twice over the week following luciferin injection (150 mg/kg, obtained from BioVision, CA, USA). […]

The test system of a further data set is CLL cells. Kind of data set: Viability of activated CLL cells from patients, CellTiter-Glo 72 h (IC50, DSS). Type of data set: cell-based, human. The following applies: CLL cells from 12 new patients. How it is done: CLL cells from patients were stimulated by adherent murine L cells expressing CD40L, BAFF and April for 24 h. The L cells were then removed by immuno-magnetic separation. Washed CLL cells were plated into 384-well plate format (10,000 cells/well) and tested against crizotinib at 5 concentrations in 10-fold dilutions (plates dispensed by an Echo acoustic dispenser, LabCyte Inc., San Jose, CA, USA). The plate was incubated in a humidified environment at 37° C. and 5% CO2. Cell viability was determined after 72 h using the CellTiter-Glo (Promega, Madison, WI, USA) ATP assay according to the manufacturer's instructions and using an Envision 2102 Multilabel reader (PerkinElmer, Shelton, CT, USA). Relative percentage cell viability was calculated by normalising luminescence units for each well to negative (DMSO 0.1%) and positive (100 μM BzCl) control wells. Curve fitting was conducted to obtain IC50 values.
Quantitative scoring of differential drug sensitivity for individual drugs was calculated as drug sensitivity scores (DSS values, Yadav et al., Scientific Reports 4: 5193, 2014). DSS values were calculated for integrated multiple dose-response relationships in high-throughput compound testing as shown.

Another data set addresses T1, LTK (Homo sapiens, UniProt P29376).
T1 construct: expressed in transfected cells; host or cells: HeLa cells
As to the kind of experiment: LTK inhibition: immunoblot of phosphorylated LTK in cells expressing LTK. It is filed as cell-based. As to conditions: FIG. 5A: HeLa cells expressing flag-tagged LTK, 1 μM, 30 minutes. How it is done: (§5) Cells were washed twice with PBS and collected in lysis buffer (50 mM Tris-HCl, pH7.4; 1 mM EDTA, 100 mM NaCl, 0.1% SDS and 1% NP-40) supplemented with proteinase and phosphatase inhibitor (Pierce Protease and Phosphatase Inhibitor Mini Tablets, EDTA-free). Lysates were incubated on ice for 10 minutes followed by clearing centrifugation at 20,000×g at 4° C. for 10 min. Supernatants were transferred into fresh tubes and reducing loading buffer was added. Lysates were subjected to SDS-PAGE and transferred onto a nitrocellulose membrane using semi-dry transfer. The membrane was blocked (in ROTI buffer (Roth) or 5% milk in PBS with 0.1% tween) and probed with the appropriate primary antibodies. Subsequently membranes were incubated with horseradish peroxidase-conjugated secondary antibody. Immunoblots were developed using a chemiluminescence reagent (ECL clarity, BioRad) and imaged using ChemiDoc (BioRad).

Another data set deals with HeLa cells. As to the kind of experiment: ER-to-Golgi trafficking in HeLa cells (ERES staining, mannosidase-II RUSH reporter). It is filed as cell-based. As to conditions: RUSH reporter 20 min after biotin. How it is done: (§6) In A, HeLa cells expressing flag-tagged LTK were treated with 1 μM of crizotinib or ceritinib for 30 minutes. Afterwards, cells were lysed and immunoblotted against phosphorylated LTK, which is used as a surrogate for the active form of LTK. […] B, HeLa cells were treated with 1 μM ceritinib for 30 minutes followed by fixation and staining for Sec31A to label ERES. Cells were imaged by confocal microscopy and ERES were counted using ImageJ. C, HeLa cells stably expressing mCherry-tagged mannosidase-II RUSH reporter. Cells were treated with biotin to release the reporter from the ER. After 20 min, a time point where most of the reporter has reached the Golgi, cells were fixed and immunostained for GM130 to label the Golgi apparatus. […] D, IgA secreting AMO-1 cells were treated for 3 h with the indicated doses of crizotinib and the amount of IgA in cell supernatant was determined by ELISA.

The subject of a further data set is plasma cells. As to the kind of experiment: Viability of in vitro-generated IRF4/BLIMP1 double positive end stage plasma cells. Type of data set: cell-based. The following applies: Homo sapiens, B-cell, 120 h; B-cells stimulated 5 days, inhibitor day 5-7. The text has this: Negatively selected normal B-cells from blood bank donors were stimulated with sCD40L, IL-21, IL-4 for 5 days. This protocol allows generation of 10-20% end differentiated plasma cells that express IRF4 and BLIMP1. From day 5-7, cells were exposed to titred crizotinib in A, or ceritinib in B.
In A and B, IRF4 vs BLIMP1 in gated CD19^+ B cells is shown. IRF4 and BLIMP1 double positive cells represent end stage plasma cells. Such plasma cells are gated (blue elliptic region) and percent plasma cells are shown. The conditions without inhibitor (0) and with linear Alk-inhibitor (crizotinib, A; ceritinib, B) are shown for concentrations 0.01 μM, 0.1 μM, 1 μM, 10 μM and 100 μM.

For a further data set, the system named is AMO-1 cells. Kind of data set: IgA secretion by AMO-1 cells, ELISA of supernatant. It is filed as cell-based, human. The following applies: 3 h. How it is done: as §6
Right: Secretion of Ig is reduced by ceritinib. The plasma cell line AMO-1 was washed and added to wells (10^6 cells/well) in the presence of titred ceritinib for 3 h. Supernatants were assayed for IgA secreted by the AMO-1 cells by use of the Human IgA ELISA Kit (Abcam, Cambridge, UK).
1×10^6/ml IgA-secreting AMO-1 cells were seeded in fresh medium with increasing doses of compounds of interest for 3 hr. […]

The subject of data set [2] is Hepatocellular carcinoma cells (HepG2). As to the kind of experiment: Apoptosis (cleaved caspase 3 immunoblot) in HepG2 cells with doxorubicin. As to conditions: 5 μM doxorubicin alone, 24 h. Type of data set: cell-based. How it is done: In B, Hepatocellular carcinoma cells (HepG2) were treated with DMSO (untreated) or with increasing concentrations (1, 2 and 5 μM) of doxorubicin for 24 h and apoptosis was assessed by immunoblotting for cleaved caspase 3. […] Cells were also treated with the same concentrations of doxorubicin in the presence of 1 μM crizotinib for 24 h.
as §5

Entries after “also recorded” stand apart in the source; their conditions may differ.

T1 sequence (P29376 17-864): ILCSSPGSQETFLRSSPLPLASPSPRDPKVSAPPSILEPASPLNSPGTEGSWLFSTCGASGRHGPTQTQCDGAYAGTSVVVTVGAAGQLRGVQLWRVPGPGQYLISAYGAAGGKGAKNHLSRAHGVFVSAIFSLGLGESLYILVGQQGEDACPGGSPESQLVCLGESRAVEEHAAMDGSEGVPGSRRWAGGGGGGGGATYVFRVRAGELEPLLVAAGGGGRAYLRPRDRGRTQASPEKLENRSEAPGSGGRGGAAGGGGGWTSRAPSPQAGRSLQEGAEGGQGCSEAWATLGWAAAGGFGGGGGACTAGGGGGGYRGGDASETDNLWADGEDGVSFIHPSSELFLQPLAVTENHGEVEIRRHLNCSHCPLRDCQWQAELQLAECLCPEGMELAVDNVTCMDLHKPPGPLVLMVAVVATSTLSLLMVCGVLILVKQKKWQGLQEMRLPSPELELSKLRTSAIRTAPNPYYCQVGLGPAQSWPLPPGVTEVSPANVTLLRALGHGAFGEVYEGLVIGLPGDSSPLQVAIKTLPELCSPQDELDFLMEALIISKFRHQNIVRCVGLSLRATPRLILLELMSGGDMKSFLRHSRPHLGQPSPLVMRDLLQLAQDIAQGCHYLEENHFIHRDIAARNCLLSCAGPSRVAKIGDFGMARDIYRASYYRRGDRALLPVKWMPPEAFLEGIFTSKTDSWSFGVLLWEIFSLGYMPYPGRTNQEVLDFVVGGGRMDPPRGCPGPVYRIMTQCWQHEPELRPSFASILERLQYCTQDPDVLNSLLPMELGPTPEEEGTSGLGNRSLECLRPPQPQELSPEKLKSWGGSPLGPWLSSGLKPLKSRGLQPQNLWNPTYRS

For the molecule `CCc1cc2c(cc1N1CCC(N3CCOCC3)CC1)C(C)(C)c1[nH]c3cc(C#N)ccc3c1C2=O` [alectinib, 9-ethyl-6,6-dimethyl-8-(4-morpholin-4-ylpiperidin-1-yl)-11-oxo-5H-benzo[b]carbazole-3-carbonitrile], the IC50 is 13300 nM with AMO-1, 17600 nM with AMO-1-BTZ, 6220 nM in the data set on L363-BTZ and 6120 nM with L363. Also, in the data set on multiple myeloma cells, the “cytotoxic activity against multiple myeloma cells” value was “cytotoxic activity”.
Turning to `CC(C)C[C@H](NC(=O)[C@H](Cc1ccccc1)NC(=O)c1cnccn1)B(O)O` [bortezomib], the “tumour burden (luciferase signal)” value in data set [1] is recorded as “confirmed proteasome inhibitor resistance”.
Turning to `COc1cc(N2CCC(N3CCN(C)CC3)CC2)ccc1Nc1ncc(Cl)c(Nc2ccccc2P(C)(C)=O)n1` [brigatinib, 5-chloro-4-N-(2-dimethylphosphorylphenyl)-2-N-[2-methoxy-4-[4-(4-methylpiperazin-1-yl)piperidin-1-yl]phenyl]pyrimidine-2,4-diamine], the “patients with susceptible CLL cells, cut-off DSS=10” value (“patients with susceptible CLL cells” below) in the data set with CLL cells is reported as 4/12.
As for `Cc1cc(Nc2ncc(Cl)c(Nc3ccccc3S(=O)(=O)C(C)C)n2)c(OC(C)C)cc1C1CCNCC1` [ceritinib, 5-chloro-2-N-(5-methyl-4-piperidin-4-yl-2-propan-2-yloxyphenyl)-4-N-(2-propan-2-ylsulfonylphenyl)pyrimidine-2,4-diamine], at LTK, the “inhibition of LTK” value was “inhibit LTK”. Moreover, the “patients with susceptible CLL cells” value in the data set on CLL cells was 11/12. Besides, the ER-to-Golgi trafficking entry in the data set with HeLa cells is given as “inhibits ER-to-Golgi trafficking”. Moreover, the IC50 is 2090 nM in the data set on AMO-1; 2770 nM in the data set with AMO-1-BTZ; 790 nM in the data set on L363-BTZ; 1030 nM in the data set with L363; under 1 nM in the data set with plasma cells. Further, the “cytotoxic activity against multiple myeloma cells” value with multiple myeloma cells is listed as “cytotoxic activity”. Besides, in the data set on AMO-1 cells, the “immunoglobulin (IgA) secretion” value is listed as “reduced; also recorded: inhibits immunoglobulin secretion”.
On to `COc1cccc2c1C(=O)c1c(O)c3c(c(O)c1C2=O)C[C@@](O)(C(=O)CO)C[C@@H]3O[C@H]1C[C@H](N)[C@H](O)[C@H](C)O1` [doxorubicin], for which the “cell death (cleaved caspase 3)” value in [2] is “only weakly induces cell death”.
As to `C[C@@H]1CN(C(=O)c2ccc(NC(=O)c3cc(O[C@H](C)c4c(Cl)ccc(F)c4Cl)c(N)nn3)cc2)C[C@H](C)N1` [ensartinib, 6-amino-5-[(1R)-1-(2,6-dichloro-3-fluorophenyl)ethoxy]-N-[4-[(3R,5S)-3,5-dimethylpiperazine-1-carbonyl]phenyl]pyridazine-3-carboxamide], in the data set with CLL cells, the “patients with susceptible CLL cells” value was 11/12. Moreover, the “cytotoxic activity against multiple myeloma cells” value with multiple myeloma cells is given as “cytotoxic activity”.
In the same order, the values of `CN1CCN(c2ccc(C(=O)Nc3n[nH]c4ccc(Cc5cc(F)cc(F)c5)cc34)c(NC3CCOCC3)c2)CC1` [entrectinib, N-[5-[(3,5-difluorophenyl)methyl]-1H-indazol-3-yl]-4-(4-methylpiperazin-1-yl)-2-(oxan-4-ylamino)benzamide] are 12/12 and “cytotoxic activity”.
`C[C@H]1Oc2cc(cnc2N)-c2c(nn(C)c2C#N)CN(C)C(=O)c2ccc(F)cc21` [lorlatinib]: the “patients with susceptible CLL cells” value with CLL cells is 0/12. Moreover, in the data set with multiple myeloma cells, the “cytotoxic activity against multiple myeloma cells” value is on record as “did not efficiently kill myeloma cells”.
